One compound from US20100286150A1, “LEVOSIMENDAN FOR USE IN TREATING CHRONIC VALVULAR DISEASE” (priority 2008, published 2010) can be followed below.

The data set has as its system dogs diagnosed with chronic valvular disease (CVD). The data set can be described thus: Double-blind placebo-controlled study of long-term efficacy, safety and survival in dogs with chronic valvular disease. The format is in vivo. The note with it: for Owner-reported symptom score (mean ± SD): score 0 (best) to 18 (worst), 0.05 mg/kg orally twice a day. The protocol: A double-blind placebo-controlled study was conducted for evaluating the long-term efficacy and safety of levosimendan and its effect on long-term survival in dogs diagnosed with chronic valvular disease (CVD). Dogs were randomised to receive either 0.05 mg/kg of levosimendan (n=40) or placebo (n=40) orally twice a day for 5 months. All dogs were allowed to receive their background therapy (ACE-inhibitors, diuretics, beta-blockers and/or digoxin). Quality of life, symptoms of CVD, safety and mortality assessment were conducted throughout the study.
Improvement in quality of life was determined by using a composite owner-reported symptom score (ORSS). ORSS is a composite variable that was calculated by summing scores for appetite, intolerance to exercise, daytime cough, nocturnal cough, and nocturnal restlessness. The owner-reported symptom score could range from 0 (best possible) to 18 (worst possible).

The mark [1] stands for this setting: 0.05 mg/kg orally twice a day for 5 months, added to standard therapy, vs placebo, FIG. 1.

Regarding `C[C@@H]1CC(=O)NN=C1c1ccc(NN=C(C#N)C#N)cc1` [levosimendan, (−)-enantiomer of [[4-(1,4,5,6-tetrahydro-4-methyl-6-oxo-3-pyridazinyl)phenyl]hydrazono]propanedinitrile], for the setting “0.05 mg/kg orally twice a day for 5 months in dogs with CVD”, the safety entry was “No significant safety concerns”. For the same compound, the mortality result under setting [1] was “significantly reduced mortality”. The survival result under setting [1] is given as “prolonged survival”. In addition, the “quality of life over time compared to baseline assessments (0 months)” value (owner-reported symptom score, 0.05 mg/kg orally twice a day for 5 months) is given as “significantly improved”. Besides, the “Owner-reported symptom score (mean ± SD)” value came out at 5.6 ± 2.4 (time 0 months (baseline)), 4.1 ± 3.2 (time 1 month), 4.4 ± 4.1 (time 3 months) and 4.4 ± 3.4 (time 5 months).
